Among the data in patent US20240376085A1 (Janssen Pharmaceutica NV, priority 2021, published 2024) are IC50 values, retold here.

Some results are limits rather than exact numbers.

One test has as its target T1, IL-17A : IL-17RA binding (Homo sapiens, UniProt Q16552, K93Q).
T1 construct: Name: IL-17A-Flag
In words: IL-17A(FLAG-tagged):IL-17RA(His-tagged) binding disruption Eu-HTRF assay, Protocol 1. The note with it: FLAG-IL-17A 2.5 nM at 2x final concentration; average if tested more than once. Summed up:
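IC50 came from a one-site competition fit of the acceptor/donor (665/620 nm) HTRF ratio. His-tagged IL-17RA, Eu-anti-FLAG and D2-anti-His were added after a 1 h rt compound preincubation with FLAG-tagged IL-17A dimer in PBS/0.01% Triton X-100, followed by 2 h at rt before reading.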
(Time-resolved FRET reads energy transfer from a long-lived donor to a nearby acceptor.)

In test [1] the test system is IL-17A-induced G-CSF production in human normal keratinocyte (NHK). Description: NHK assay: IL-17A-induced G-CSF production in normal human keratinocytes. It counts as cell-based. The settings on record: 24 h, IL-17A 5 ng/mL, average if tested more than once. The method in brief:
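Compound titrations are first mixed with recombinant human IL-17A for 1 h at room temperature. The mixture goes onto adult normal human keratinocytes (final IL-17A 5 ng/mL, 5% FBS, 0.2% DMSO) for 24 h at 37 °C. Secreted G-CSF is then measured by HTRF and IC50 fitted.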

T1 sequence (Q16552 with tags, fused parts or gaps K93Q): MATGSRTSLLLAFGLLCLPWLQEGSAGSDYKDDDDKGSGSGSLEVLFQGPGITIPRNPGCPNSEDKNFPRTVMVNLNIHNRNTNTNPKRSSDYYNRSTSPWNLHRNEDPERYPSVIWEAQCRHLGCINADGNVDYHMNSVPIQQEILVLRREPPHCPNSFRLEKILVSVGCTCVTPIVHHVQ

Broadly, the IC50 is the concentration that inhibits the measured activity by half. Read a high IC50 as lower potency. As for `C[C@@H](NC(=O)CCC(F)(F)F)c1ccc2[nH]c([C@@H](NC(=O)c3cnn(CCOC(F)(F)F)n3)C3CCC(F)(F)CC3)nc2c1` [Example 35, N—[(S)-(4,4-Difluorocyclohexyl)-[6-[(1R)-1-(4,4,4-trifluorobutanoylamino)ethyl]-1H-benzimidazol-2-yl]methyl]-2-[2-(trifluoromethoxy)ethyl]triazole-4-carboxamide], the IC50 is above 100 nM on IL-17A : IL-17RA binding and above 100 nM in test [1] (Homo sapiens, Keratinocyte).

With `CC(C)n1nccc1C(=O)NC(COC(C)(C)C(C)(F)F)c1nc2ccc([C@H](NC(=O)CC3CC(F)(F)C3)C3CC3)cc2[nH]1` (single isomer, unassigned) [Example 149, N—((R*)-1-(6-((R)-Cyclopropyl(2-(3,3-difluorocyclobutyl)acetamido)methyl)-1H-benzo[d]imidazol-2-yl)-2-((3,3-difluoro-2-methylbutan-2-yl)oxy)ethyl)-1-isopropyl-1H-pyrazole-5-carboxamide], the IC50 is above 100 nM on IL-17A : IL-17RA binding and below 50 nM in test [1] (Homo sapiens, Keratinocyte).

Consider `C[C@@H](NC(=O)CCC(F)(F)F)c1ccc2[nH]c([C@@H](NC(=O)c3cnn(CC(F)(F)F)n3)C3CCC(F)(F)CC3)nc2c1` [Example 22, N—[(S)-(4,4-Difluorocyclohexyl)-[6-[(1R)-1-(4,4,4-trifluorobutanoylamino)ethyl]-1H-benzimidazol-2-yl]methyl]-2-(2,2,2-trifluoroethyl)triazole-4-carboxamide], for which the IC50 at IL-17A : IL-17RA binding is above 100 nM; in test [1] (Homo sapiens, Keratinocyte), above 100 nM.

Turning to `CCCC(NC(=O)CCC(F)(F)F)c1ccc2[nH]c([C@@H](NC(=O)c3ccnn3C)C3CCC(F)(F)CC3)nc2c1` (single isomer, unassigned) [Example 50, N—((S)-(4,4-Difluorocyclohexyl)(5-((S*)-1-(4,4,4-trifluorobutanamido)butyl)-1H-benzo[d]imidazol-2-yl)methyl)-1-methyl-1H-pyrazole-5-carboxamide], the half-inhibitory concentration (IC50) on IL-17A : IL-17RA binding was above 100 nM; in test [1] (Homo sapiens, Keratinocyte), above 100 nM.

As for `Cc1nocc1C(=O)N[C@@H](COC(C)(C)C(F)(F)F)c1nc2ccc([C@H](NC(=O)CC3CC(F)(F)C3)C3CC3)cc2[nH]1` [Example 77, N—((R)-1-(6-((R)-Cyclopropyl(2-(3,3-difluorocyclobutyl)acetamido)methyl)-1H-benzo[d]imidazol-2-yl)-2-((1,1,1-trifluoro-2-methylpropan-2-yl)oxy)ethyl)-3-methylisoxazole-4-carboxamide], the IC50 on IL-17A : IL-17RA binding lay in the range of 50 to 100 nM; in test [1] (Homo sapiens, Keratinocyte) it was 50 to 100 nM.

Take `C[C@@H](NC(=O)CCC(F)(F)F)c1ccc2nc([C@@H](NC(=O)c3ccccc3)C3CCC(F)(F)CC3)[nH]c2c1` [Example 120, N—((S)-(4,4-Difluorocyclohexyl)(6-((R)-1-(4,4,4-trifluorobutanamido)ethyl)-1H-benzo[d]imidazol-2-yl)methyl)benzamide]: the IC50 at IL-17A : IL-17RA binding was above 100 nM; in test [1] (Homo sapiens, Keratinocyte), 50 to 100 nM.

`CCCC(NC(=O)CCC(F)(F)F)c1ccc2[nH]c([C@@H](NC(=O)c3ccnn3C)C3CCC(F)(F)CC3)nc2c1` (single isomer, unassigned) [Example 51, N—((S)-(4,4-Difluorocyclohexyl)(5-((R*)-1-(4,4,4-trifluorobutanamido)butyl)-1H-benzo[d]imidazol-2-yl)methyl)-1-methyl-1H-pyrazole-5-carboxamide]: the IC50 at IL-17A : IL-17RA binding is above 100 nM; in test [1], 50 to 100 nM.

`CC(Cn1nncc1C(=O)N[C@H](c1nc2ccc([C@@H](C)NC(=O)CCC(F)(F)F)cc2[nH]1)C1CCC(F)(F)CC1)C(F)(F)F` (single isomer, unassigned) [Example 71, N—((S)-(4,4-Difluorocyclohexyl)(6-((R)-1-(4,4,4-trifluorobutanamido)ethyl)-1H-benzo[d]imidazol-2-yl)methyl)-1-((R*)-3,3,3-trifluoro-2-methylpropyl)-1H-1,2,3-triazole-5-carboxamide]: the IC50 at IL-17A : IL-17RA binding was above 100 nM; in test [1] (Homo sapiens, Keratinocyte), above 100 nM.

Consider `Cc1nonc1C(=O)N[C@H](c1nc2ccc([C@H](NC(=O)CC3CC(F)(F)C3)C3CC3)cc2[nH]1)C1CCC2(CC1)CC2` (stereo partly drawn) [Example 169, N—((S)-(6-((R)-Cyclopropyl(2-(3,3-difluorocyclobutyl)acetamido)methyl)-1H-benzo[d]imidazol-2-yl)(spiro[2.5]octan-6-yl)methyl)-4-methyl-1,2,5-oxadiazole-3-carboxamide], for which the IC50 on IL-17A : IL-17RA binding is below 50 nM; in test [1] (Homo sapiens, Keratinocyte) it was below 50 nM.

Take `C[C@@H](NC(=O)CCC(F)(F)F)c1ccc2[nH]c([C@@H](NC(=O)c3ncn(CCC(F)(F)F)n3)C3CCC(F)(F)CC3)nc2c1` [Example 228, N—((S)-(4,4-Difluorocyclohexyl)(5-((R)-1-(4,4,4-trifluorobutanamido)ethyl)-1H-benzo[d]imidazol-2-yl)methyl)-1-(3,3,3-trifluoropropyl)-1H-1,2,4-triazole-3-carboxamide]: the half-maximal inhibitory concentration (IC50) at IL-17A : IL-17RA binding is above 100 nM; in test [1] (Homo sapiens, Keratinocyte), above 100 nM.

For the compound `C[C@@H](NC(=O)CCC(F)(F)F)c1ccc2[nH]c([C@@H](NC(=O)c3cnn(CCCC(F)(F)F)n3)C3CCC(F)(F)CC3)nc2c1` [Example 19, N—[(S)-(4,4-Difluorocyclohexyl)-[6-[(1R)-1-(4,4,4-trifluorobutanoylamino)ethyl]-1H-benzimidazol-2-yl]methyl]-2-(4,4,4-trifluorobutyl)triazole-4-carboxamide], the half-inhibitory concentration (IC50) is above 100 nM on IL-17A : IL-17RA binding and 50 to 100 nM in test [1] (Homo sapiens, Keratinocyte).

Turning to `CC(C)n1nccc1C(=O)N[C@@H](CC1(C(F)(F)F)CC1)c1nc2ccc([C@H](NC(=O)CC3CC(F)(F)C3)C3CC3)cc2[nH]1` [Example 243, N—((S)-1-(6-((R)-Cyclopropyl(2-(3,3-difluorocyclobutyl)acetamido)methyl)-1H-benzo[d]imidazol-2-yl)-2-(1-(trifluoromethyl)cyclopropyl)ethyl)-1-isopropyl-1H-pyrazole-5-carboxamide], the IC50 on IL-17A : IL-17RA binding was above 100 nM; in test [1] (Homo sapiens, Keratinocyte), 50 to 100 nM.

In the case of `C[C@@H](NC(=O)CC(C(F)(F)F)C(F)(F)F)c1ccc2nc([C@@H](NC(=O)c3cccc(C#N)c3)C3CCC(F)(F)CC3)[nH]c2c1` [Example 132, 3-Cyano-N—((S)-(4,4-difluorocyclohexyl)(6-((R)-1-(4,4,4-trifluoro-3-(trifluoromethyl)butanamido)ethyl)-1H-benzo[d]imidazol-2-yl)methyl)benzamide], the IC50 on IL-17A : IL-17RA binding is above 100 nM; in test [1] (Homo sapiens, Keratinocyte) it was above 100 nM.

As for `C[C@@H](NC(=O)CCC(F)(F)F)c1ccc2[nH]c([C@@H](NC(=O)c3coc(CCC(F)(F)F)n3)C3CCC(F)(F)CC3)nc2c1` [Example 225, N—((S)-(4,4-Difluorocyclohexyl)(5-((R)-1-(4,4,4-trifluorobutanamido)ethyl)-1H-benzo[d]imidazol-2-yl)methyl)-2-(3,3,3-trifluoropropyl)oxazole-4-carboxamide], the IC50 on IL-17A : IL-17RA binding was above 100 nM; in test [1] (Homo sapiens, Keratinocyte) it was above 100 nM.

Turning to `Cc1c(C(=O)N[C@H](c2nc3cc([C@@H](C)NC(=O)CCC(F)(F)F)ccc3[nH]2)C2CCC(F)(F)CC2)cnn1CC(F)(F)F` [Example 18, N—[(S)-(4,4-Difluorocyclohexyl)-[6-[(1R)-1-(4,4,4-trifluorobutanoylamino)ethyl]-1H-benzimidazol-2-yl]methyl]-5-methyl-1-(2,2,2-trifluoroethyl)pyrazole-4-carboxamide], the IC50 on IL-17A : IL-17RA binding was above 100 nM; in test [1] (Homo sapiens, Keratinocyte), above 100 nM.

`CC(C)n1cccc1C(=O)N[C@H](c1nc2cc([C@@H](C)NC(=O)CCC(F)(F)F)ccc2[nH]1)C1CCC(F)(F)CC1` [Example 213, N—((S)-(4,4-Difluorocyclohexyl)(5-((R)-1-(4,4,4-trifluorobutanamido)ethyl)-1H-benzo[d]imidazol-2-yl)methyl)-1-isopropyl-1H-pyrrole-2-carboxamide]: the IC50 is below 50 nM on IL-17A : IL-17RA binding and below 50 nM in test [1] (Homo sapiens, Keratinocyte).

Consider `CC(C)C(=O)N[C@H](c1nc2cc([C@@H](C)NC(=O)CCC(F)(F)F)ccc2[nH]1)C1CCC(F)(F)CC1` [Example 115, N—((R)-1-(2-((S)-(4,4-Difluorocyclohexyl)(isobutyramido)methyl)-1H-benzo[d]imidazol-5-yl)ethyl)-4,4,4-trifluorobutanamide], for which the concentration for half-maximal inhibition (IC50) on IL-17A : IL-17RA binding was above 100 nM; in test [1] (Homo sapiens, Keratinocyte), above 100 nM.

Take `C[C@@H](NC(=O)CCC(F)(F)F)c1ccc2[nH]c([C@@H](NC(=O)[C@@H]3C[C@H]3F)C3CCC(F)(F)CC3)nc2c1` [Example 100, (1S,2R)—N—((S)-(4,4-Difluorocyclohexyl)(5-((R)-1-(4,4,4-trifluorobutanamido)ethyl)-1H-benzo[d]imidazol-2-yl)methyl)-2-fluorocyclopropane-1-carboxamide]: the 50% inhibitory concentration (IC50) on IL-17A : IL-17RA binding is above 100 nM; in test [1] (Homo sapiens, Keratinocyte), above 100 nM.

Turning to `Cc1nonc1C(=O)N[C@H](c1nc2ccc([C@H](NC(=O)CC3CC(F)(F)C3)C3CC3)cc2[nH]1)[C@@H]1CCCC(F)(F)C1` [Example 246, N—((S)-(6-((R)-Cyclopropyl(2-(3,3-difluorocyclobutyl)acetamido)methyl)-1H-benzo[d]imidazol-2-yl)((R)-3,3-difluorocyclohexyl)methyl)-4-methyl-1,2,5-oxadiazole-3-carboxamide], the half-maximal inhibitory concentration (IC50) on IL-17A : IL-17RA binding is below 50 nM; in test [1] (Homo sapiens, Keratinocyte) it was below 50 nM.

For the compound `Cn1nccc1C(=O)N[C@H](c1nc2cc(C(NC(=O)CCC(F)(F)F)C3CC3)ccc2[nH]1)C1CCC(F)(F)CC1` (single isomer, unassigned) [Example 54, N—((S)-(5-((S*)-Cyclopropyl(4,4,4-trifluorobutanamido)methyl)-1H-benzo[d]imidazol-2-yl)(4,4-difluorocyclohexyl)methyl)-1-methyl-1H-pyrazole-5-carboxamide], the IC50 at IL-17A : IL-17RA binding is above 100 nM; in test [1] (Homo sapiens, Keratinocyte), below 50 nM.
